# “And” between values parts separate entries of the source, which are not always exact repeats. Identical values can stand only once.
# How the values were obtained:
# [1] = test system: A8G2 (5′-GAAGAAGAAACTGAC); test: Binding of 5′-32P-endlabeled oligonucleotide to PNA-Sepharose; conditions: DNA A8G2; PNA on solid support (CNBr-Sepharose); 16 hr at 20° C. in TE
# [2] = test system: A9G (5′-TCGACAAAAAGAAAAG); test: as above; conditions: DNA A9G; PNA on solid support (CNBr-Sepharose); 16 hr at 20° C. in TE
# [3] = test system: A10 (5′-GATCCAAAAAAAAAAG); format: binding
# [4] = test system: mix (5′-GATCACGCGTATACGCGT); test: Binding of 5′-32P-endlabeled oligonucleotide to PNA-Sepharose; conditions: DNA mix; PNA on solid support (CNBr-Sepharose); 16 hr at 20° C. in TE
# [5] = test system: (dA)5(dG)(dA)4; test: Melting temperature (Tm) of hybrid with oligodeoxyribonucleotide; format: binding; conditions: oligo 4 (5′-AAA-AAG-AAA-A), 10 mM phosphate, 1 mM EDTA, pH 7.2; for Tm, Medium Salt: 140 mM NaCl; for Tm, High Salt: 500 mM NaCl; for Tm, Low Salt: no sodium chloride
# Text: (§1) 2. Upon formation of DNA duplexes (dsDNA) from single strand DNA, the extinction coefficient decreases (hypochromicity). Thus, the denaturing of DNA can be followed by measuring changes in the absorbance, for example, as a function of […], the temperature where 50% of a duplex has disappeared to give single strands.
# (§2) Duplexes were formed from the single-stranded oligodeoxyribonucleotides and the PNAs listed below. Typically 0.3 OD260 of the T-rich strand was hybridized with 1 equivalent of the other strand by heating to 90° C. for 5 min, cooling to room temperature and kept for 30 min and finally stored in a refrigerator at 5° C. for at least 30 min. The buffers used were all 10 mM in phosphate and 1 mM in EDTA. The low salt buffer contained no sodium chloride, whereas the medium salt buffer contained 140 mM NaCl and the high salt buffer 500 mM NaCl. The pH of all the buffers was 7.2. The melting temperature of the hybrids were determined on a Gilford Response apparatus. The following extinction coefficients were used A: 15.4 ml/μmol.cm; T: 8.8; G: 11.7 and C: 7.3 for both normal oligonucleotides and PNA. The melting curves were recorded in steps of 0.5 C/min. The Tm were determined from the maximum of the 1st derivative of the plot of A260 vs temperature.
# [6] = test system: 5′-AAA-AGA-AGA-A; test: as above; format: binding; conditions: oligo 7 (5′-AAA-AGA-AGA-A); 10 mM phosphate, 1 mM EDTA, 140 mM NaCl, pH 7.2
# Text: as §1, §2
# 7. 5′-AAA-AGA-AGA-A (See SEQ ID NO:13)
# [7] = test system: 5′-AAG-AAG-AAA-A; test: as above; format: binding; conditions: oligo 5 (5′-AAG-AAG-AAA-A); 10 mM phosphate, 1 mM EDTA, 140 mM NaCl, pH 7.2
# Text: as §1, §2
# 5. 5′-AAG-AAG-AAA-A (See SEQ ID NO:9)
# [8] = test system: 32P-dsDNA (A10/T10) target, pT10 fragment; test: Stability of PNA-dsDNA complexes; format: binding; conditions: PNA bound to A10/T10 dsDNA target; heated 10 min with competing GATCCA10G, S1 nuclease
# Method: Complexes between PNA-Tn and ^32P-dsDNA (A10/T10) target were formed (60 min, 37° C.). The complexes were then incubated at the desired temperature in the presence of excess oligo-dA10 for 10 min, cooled to RT and probed with KMnO4.
# A mixture of 200 cps ^32P-pT10 fragment (as in Example 65), 0.5 μg calf thymus DNA and 300 ng of the desired PNA (either T10-LysNH2, T8-LysNH2 or T6-LysNH2) was incubated in 100 μl 200 mM NaCl, 50 mM Na-acetate, pH 4.5, 1 mM ZnSO4 for 60 min at 37° C. A 2 μg portion of oligonucleotide GATCCA10G was added to compete with the PNA for the labelled oligonucleotide and each sample was heated for 10 min at the temperature indicated, cooled in ice for 10 min and warmed to 20° C. 50 U of S1 nuclease was added and the quantity of radio-activity liberated as single nucleotides was measured.
# [9] = test system: 5′-AAA-AAA-AA; test: Melting temperature (Tm) of hybrid with oligodeoxyribonucleotide; format: binding; conditions: oligo 1 (5′-AAA-AAA-AA), 10 mM phosphate, 1 mM EDTA, pH 7.2
# Text: as §1, §2
# 1. 5′-AAA-AAA-AA (See SEQ ID NO:12)
# [10] = test system: 32P-end-labelled dA10; test: Binding to dA10, gel retardation (PAGE); conditions: summary statement, illustrated by gel retardation and Tm
# Method: 1. As shown in Example 56 below PNA-oligonucleotide complexes will migrate slower than the single stranded oligonucleotide upon electrophoresis in polyacrylamide gels. Consequently, such experiments were performed with Acr^1-(Taeg)10-Lys-NH2 and ^32P-end-labelled dA10.
# The sample was cooled in ice (15 min) and analyzed by gel electrophoresis in polyacrylamide (PAGE). To 10 μl of the sample was added 2 μl 50% glycerol, 5μl TBE (TBE=90 mM Tris-borate, 1 mM EDTA, pH 8.3), and the sample was analysed by PAGE (15% acrylamide, 0.5% bisacrylamide) in TBE buffer at 4° C. A 10 μl portion of the sample was lyophilized and redissolved in 10 μl 80% formamide, 1 TBE, heated to 90° C. (5 min), and analyzed by urea/PAGE (15% acrylamide, 0.5% bisacrylamide, 7 M urea) in TBE. [^32P]-containing DNA bands were visualized by autoradiography using intensifying screens and Agfa Curix RPI X-ray films exposed at −80° C. for 2 h.
# Oligonucleotides were synthesized on a Biosearch 7500 DNA synthesizer, labelled with γ[^32P]-ATP (Amersham, 5000 Ci/mmol) and polynucleotide kinase, and purified by PAGE using standard techniques (Maniatis et al. (1986): A laboratory manual, Cold Spring Harbor Laboratories).
# In FIG. 11a and in FIG. 11b, the 5′-^32P-labelled oligonucleotide 1 is 5′-GATCCA10G. This was incubated in the absence (lanes 1 and 4) or presence of Acr-T10-Lys-NH2 (in lanes 2 and 5, 25 pmol; lanes 3 and 6, 75 pmol) and also in the absence (lanes 1 to 3) or presence (lanes 4 to 6) of “oligo-2” which was 5′-GATCCT10G. 5′-^32P-labelled oligo 2 was incubated in the absence (lane 7) or presence of the same PNA (lane 8, 25 pmol; lane 9, 75 pmol) and analysed by PAGE as described above in detail.
# The results in FIG. 11a show retardation of the ssDNA as it is hybridised by PNA (lanes 1 to 3) and the ability of PNA to compete with a DNA oligonucleotide, for labelled complementary oligonucleotide (lanes 4 to 6). The intensity of the band attributable to dsDNA grows faster as the PNA concentration is raised and is replaced by a band representing the slower moving PNA-DNA hybride. […]
# [11] = test system: RNA-C; test: Drop in A260 on mixing PNA with RNA; format: binding
# Method: (§3) The hybrid formed between RNA-A (poly rA) and PNA-T10-Lys-NH2 melts at such high temperature that it cannot be measured (>90 C). […] Thereafter the sample is heated to 90° C. for 5 min, cooled to room temperature and kept at this temperature for 30 minutes and finally stored at 5° C. for 30 min.
# [12] = test system: RNA-A; test: Drop in A260 on mixing PNA with RNA; format: binding
# Method: as §3
# [13] = test system: RNA-G; test: Drop in A260 on mixing PNA with RNA; format: binding
# Method: as §3
# [14] = test system: RNA-U; test: Drop in A260 on mixing PNA with RNA; format: binding
# Method: as §3
# [15] = test system: A10 target in plasmid pA10KS / pT10KS, transcription by RNA polymerase; test: Inhibition of transcription by PNA; format: biochemical
# Method: RNA transcripts were visualized by autoradiography. The plasmid used was: Lane 1 to 5; pA10KS (the A10 target is positioned on the transcribed strand). Lane 6 to 10: pT10KS (the A10 target is positioned on the non-transcribed strand). The plasmid was treated with the following restriction enzymes prior to the experiment: Lanes 1, 4, 6 and 9: PyuII; lanes 2, 5, 7 and 10: Xha I; lanes 3 and 8: BamHI. […] If the PNA is bound to the non-transcribed strand of the plasmid, transcription is not arrested.
# [16] = test system: RNA-A (poly rA); test: Melting of PNA-RNA hybrid; format: binding; conditions: hybrid with RNA-A (poly rA); cannot be measured
# Method: as §3
# [17] = test system: (dA)10; test: Melting temperature (Tm) of hybrid with oligodeoxyribonucleotide; format: binding; conditions: for Tm: DNA (dA)10
# Text: as §1, §2
# [18] = A260 before mixing 0.600, heated to 90° C. for 5 min, cooled
substance,measurement,setting,value
TTC-TTC-TTT-T-Lys-NH2 [T8C2],% Binding of 32P-oligo to PNA-Sepharose,[1],42%
same,% Binding of 32P-oligo to PNA-Sepharose,[2],52%
same,% Binding of 32P-oligo to PNA-Sepharose,[3],15%
same,% Binding of 32P-oligo to PNA-Sepharose,[4],14%
TTT-TTC-TTT-T-Lys-NH2,% Binding of 32P-oligo to PNA-Sepharose,[1],45%
same,% Binding of 32P-oligo to PNA-Sepharose,[2],50%
same,% Binding of 32P-oligo to PNA-Sepharose,[4],13%
same,"Tm, Medium Salt",[5],72.0 °C
same,"Tm, High Salt",[5],72.5 °C
same,"Tm, Low Salt",[5],74.5 °C
same,"Tm, Medium Salt",[6],58.0 °C
same,"Tm, Medium Salt",[7],57.5 °C
TTT-TTT-TT-Lys-NH2 [b],Tm of PNA/DNA complex,[8],60 °C
same,"Tm, Medium Salt",[9]; 140 mM NaCl,51.5 °C
same,"Tm, High Salt",[9]; 500 mM NaCl,50.0 °C
same,"Tm, Low Salt",[9]; no sodium chloride,56.0 °C
TTT-TTT-TTT-T-Lys-NH2 [H-T10-LysNH2],binding to the corresponding dA10,[10],very efficient binding
same,A260 After Mixing,[11]; A260 before mixing 0.600,0.540
same,A260 After Mixing and Heating,[11]; [18],0.532
same,A260 After Mixing,[12]; A260 before mixing 0.600,0.389
same,A260 After Mixing and Heating,[12]; [18],0.360
same,A260 After Mixing,[13]; A260 before mixing 0.600,0.514
same,A260 After Mixing and Heating,[13]; [18],0.517
same,A260 After Mixing,[14]; A260 before mixing 0.600,0.538
same,A260 After Mixing and Heating,[14]; [18],0.528
same,Tm of PNA/DNA complex,[8],> 70 °C
same,transcription of RNA,[15]; PNA bound to the non-transcribed strand (pT10KS),not arrested
same,transcription of RNA,[15]; PNA bound to the transcribed strand (pA10KS),arrested at the PNA binding site
same,melting temperature of hybrid,[16],> 90 C
same,% Binding of 32P-oligo to PNA-Sepharose,[1],11%
same,% Binding of 32P-oligo to PNA-Sepharose,[2],11%
same,% Binding of 32P-oligo to PNA-Sepharose,[3],51%
same,% Binding of 32P-oligo to PNA-Sepharose,[4],11%
same,Tm,[17]; Example 55,73 °C and 73 °C °C
same,Tm,[17]; Example 61,73 °C °C
same,"Tm, Medium Salt","[17]; oligo 2 (5′-AAA-AAA-AAA-A), 10 mM phosphate, 1 mM EDTA, 140 mM NaCl, pH 7.2",72.5 °C
same,"Tm, High Salt","[17]; oligo 2 (5′-AAA-AAA-AAA-A), 10 mM phosphate, 1 mM EDTA, 500 mM NaCl, pH 7.2",73.0 °C
same,"Tm, Low Salt","[17]; oligo 2 (5′-AAA-AAA-AAA-A), 10 mM phosphate, 1 mM EDTA, no sodium chloride, pH 7.2",73.0 °C
same,"Tm, Medium Salt",[5],59.0 °C
same,"Tm, High Salt",[5],61.5 °C
same,"Tm, Low Salt",[5],60.0 °C
same,"Tm, Medium Salt",[6],46.0 °C
same,"Tm, Medium Salt",[7],47.0 °C

# Source: patent US6357163B1, “Use of nucleic acid analogues in diagnostics and analytical procedures” (priority 1991, dated 2002)
